Biological target: T1, oestrogen receptor (ER) (Homo sapiens, UniProt P03372)
T1 construct: These MVLN cells express, along with the functional oestrogen receptor (ER), a reporter construct; endogenous in cells; host or cells: MVLN cells (MCF7 derivative carrying a luciferase reporter construct)
T1 sequence (P03372 1-595): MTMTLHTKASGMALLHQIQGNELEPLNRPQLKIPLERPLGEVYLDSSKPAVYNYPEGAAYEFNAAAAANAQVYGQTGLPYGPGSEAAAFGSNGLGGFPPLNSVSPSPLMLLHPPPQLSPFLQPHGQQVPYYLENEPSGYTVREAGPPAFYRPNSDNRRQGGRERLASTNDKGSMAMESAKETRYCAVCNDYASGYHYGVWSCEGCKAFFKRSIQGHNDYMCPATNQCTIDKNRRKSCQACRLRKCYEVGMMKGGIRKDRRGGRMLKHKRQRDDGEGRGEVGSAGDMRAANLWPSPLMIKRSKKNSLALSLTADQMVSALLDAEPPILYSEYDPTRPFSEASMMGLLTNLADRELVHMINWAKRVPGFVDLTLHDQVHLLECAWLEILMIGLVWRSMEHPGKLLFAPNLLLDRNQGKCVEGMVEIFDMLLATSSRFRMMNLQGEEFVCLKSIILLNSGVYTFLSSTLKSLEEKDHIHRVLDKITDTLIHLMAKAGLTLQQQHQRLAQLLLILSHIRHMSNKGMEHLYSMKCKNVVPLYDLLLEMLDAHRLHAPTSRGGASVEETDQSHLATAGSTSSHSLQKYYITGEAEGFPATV
Test: Anti-oestrogenic action in MVLN cells (inhibition of estradiol-induced luciferase)
Format: cell-based
Settings: inhibition of estradiol-induced luciferase signal, value of Ex. 44 is a mean value, read-out: Antioestrogenic action in vitro: MVLN transactivation antagonism IC50
From the text: The anti-oestrogenic action of the claimed pharmacological compounds was investigated in so-called MVLN cells in vitro. MVLN cells are derivatives of the hormone-responsive MCF7 breast cancer cells known by a person skilled in the art. These MVLN cells express, along with the functional oestrogen receptor (ER), a reporter construct, which under ER-activation expresses luciferase. Determination of the activity of the induced luciferase permits a direct conclusion on the oestrogen properties of substances. To investigate the anti-oestrogenic properties of the pharmacological compounds, they were investigated in the presence of oestrogen for their potential for inhibiting the luciferase signal induced by estradiol. The claimed pharmacological test substances were investigated in MVLN cells for their anti-oestrogenic potential, as described (see Table 2).

IC50 | SMILES
0.01 µM | CN(CCCCCCC1=C(c2ccc(F)cc2)CCCc2c1ccc(O)c2F)CCCC[S+]([O-])CCCC(F)(F)C(F)(F)F (stereo not drawn) [Example 35, 4-Fluoro-8-(4-fluorophenyl)-9-[6-(methyl{4-[(4,4,5,5,5-pentafluoropentyl)sulphinyl]butyl}amino)hexyl]-6,7-dihydro-5H-benzo[7]annulen-3-ol]
0.025 µM | CN(CCCCCCC1=C(c2ccc(F)cc2)CCCc2c1ccc(O)c2F)CCCSCCCC(F)(F)C(F)(F)F [Example 86, 4-Fluoro-8-(4-fluorophenyl)-9-[6-(methyl{3-[(4,4,5,5,5-pentafluoropentyl)sulphanyl]propyl}amino)hexyl]-6,7-dihydro-5H-benzo[7]annulen-3-ol]
0.051 µM | O=S(=O)(CCCN(CCF)CCCCCCC1=C(c2ccc(F)cc2)CCCc2c1ccc(O)c2F)CCCC(F)(F)C(F)(F)F [Example 85, 4-Fluoro-9-{6-[(2-fluoroethyl){3-[(4,4,5,5,5-pentafluoropentyl)sulphonyl]propyl}amino]hexyl}-8-(4-fluorophenyl)-6,7-dihydro-5H-benzo[7]annulen-3-ol]
0.014 µM | N#CCN(CCCCCCC1=C(c2ccc(F)cc2)CCCc2cc(O)ccc21)CCCCS(=O)(=O)CCCC(F)(F)F [Example 90, ({6-[8-(4-Fluorophenyl)-3-hydroxy-6,7-dihydro-5H-benzo[7]annulen-9-yl]hexyl}{4-[(4,4,4-trifluorobutyl)sulphonyl]butyl}amino)acetonitrile]
0.016 µM | O=S(=O)(CCCN(CCO)CCCCCCC1=C(c2ccc(F)cc2)CCCc2c1ccc(O)c2F)CCCC(F)(F)C(F)(F)F [Example 59, 4-Fluoro-8-(4-fluorophenyl)-9-{6-[(2-hydroxyethyl){3-[(4,4,5,5,5-pentafluoropentyl)sulphonyl]propyl}amino]hexyl}-6,7-dihydro-5H-benzo[7]annulen-3-ol]
0.111 µM | O=S(=O)(CCCN(CCCO)CCCCCCC1=C(c2ccc(F)cc2)CCCc2cc(O)ccc21)CCC(F)(F)F [Example 57, 8-(4-Fluorophenyl)-9-{6-[(3-hydroxypropyl){3-[(3,3,3-trifluoropropyl)sulphonyl]propyl}amino]hexyl}-6,7-dihydro-5H-benzo[7]annulen-3-ol]
0.048 µM | CN(CCCCCCC1=C(c2ccc(F)c(F)c2)CCCc2cc(O)ccc21)CCC[S+]([O-])CCC(F)(F)F (stereo not drawn) [Example 21, 8-(3,4-Difluorophenyl)-9-[6-(methyl{3-[(3,3,3-trifluoropropyl)sulphinyl]propyl}amino)hexyl]-6,7-dihydro-5H-benzo[7]annulen-3-ol]
0.009 µM | [2H]C([2H])([2H])N(CCCCCCC1=C(c2ccc(F)cc2F)CCCc2cc(O)ccc21)CCCS(=O)(=O)CCCCC(F)(F)F [Example 136, 8-(2,4-Difluorophenyl)-9-{6-[(^2H3)methyl{3-[(5,5,5-trifluoropentyl)sulphonyl]propyl}amino]hexyl}-6,7-dihydro-5H-benzo[7]annulen-3-ol]
0.042 µM | COCCCN(CCCCCCC1=C(c2ccc(F)cc2)CCCc2c1ccc(O)c2F)CCCS(=O)(=O)CCCC(F)(F)C(F)(F)F [Example 41, 4-Fluoro-8-(4-fluorophenyl)-9-{6-[(3-methoxypropyl){3-[(4,4,5,5,5-pentafluoropentyl)sulphonyl]propyl}amino]hexyl}-6,7-dihydro-5H-benzo[7]annulen-3-ol]
0.017 µM | CN(CCCCCCC1=C(c2ccc(F)cc2)CCCc2cc(O)ccc21)CCCS(=O)(=O)CCCCCC(F)(F)F [Example 148, 8-(4-Fluorophenyl)-9-[6-(methyl{3-[(6,6,6-trifluorohexyl)sulphonyl]propyl}amino)hexyl]-6,7-dihydro-5H-benzo[7]annulen-3-ol]
0.084 µM | CC(C)(O)CN(CCCCCCC1=C(c2cc(F)cc(F)c2)CCCc2cc(O)ccc21)CCCS(=O)(=O)CCC(F)(F)F [Example 11, 8-(3,5-Difluorophenyl)-9-{6-[(2-hydroxy-2-methylpropyl){3-[(3,3,3-trifluoropropyl)sulphonyl]propyl}amino]hexyl}-6,7-dihydro-5H-benzo[7]annulen-3-ol]
0.01 µM | O=S(=O)(CCCCNCCCCCCC1=C(c2ccc(F)cc2)CCCc2cc(O)ccc21)CCCC(F)(F)F [Example 77, 8-(4-Fluorophenyl)-9-[6-({4-[(4,4,4-trifluorobutyl)sulphonyl]butyl}amino)hexyl]-6,7-dihydro-5H-benzo[7]annulen-3-ol]
0.17 µM | COCCN(CCCCCCC1=C(c2ccc(F)cc2)CCCc2c1ccc(O)c2F)CCCS(=O)(=O)CCCC(F)(F)C(F)(F)F [Example 40, 4-Fluoro-8-(4-fluorophenyl)-9-{6-[(2-methoxyethyl){3-[(4,4,5,5,5-pentafluoropentyl)sulphonyl]propyl}amino]hexyl}-6,7-dihydro-5H-benzo[7]annulen-3-ol]
0.011 µM | CN(CCCCCCC1=C(c2ccc(F)cc2)CCCc2cc(O)ccc21)CCCCS(=O)(=O)CCC(F)(F)C(F)(F)F [Example 75, 8-(4-Fluorophenyl)-9-[6-(methyl{4-[(3,3,4,4,4-pentafluorobutyl)sulphonyl]butyl}amino)hexyl]-6,7-dihydro-5H-benzo[7]annulen-3-ol]
0.009 µM | O=S(=O)(CCCN(CCO)CCCCCCC1=C(c2ccc(F)cc2)CCCc2cc(O)c(F)cc21)CCCC(F)(F)C(F)(F)F [Example 100, 2-Fluoro-8-(4-fluorophenyl)-9-{6-[(2-hydroxyethyl){3-[(4,4,5,5,5-pentafluoropentyl)sulphonyl]propyl}amino]hexyl}-6,7-dihydro-5H-benzo[7]annulen-3-ol]
0.034 µM | CN(CCCCCCC1=C(c2ccc(F)c(F)c2)CCCc2cc(O)ccc21)CCC[S+]([O-])CCC(F)(F)C(F)(F)F (stereo not drawn) [Example 18, 8-(3,4-Difluorophenyl)-9-[6-(methyl{3-[(3,3,4,4,4-pentafluorobutyl)sulphinyl]propyl}amino)hexyl]-6,7-dihydro-5H-benzo[7]annulen-3-ol]
0.007 µM | [2H]C([2H])([2H])N(CCCCCCC1=C(c2ccc(F)cc2)CCCc2cc(O)ccc21)CCCS(=O)(=O)CCCCC(F)(F)F [Example 139, 8-(4-Fluorophenyl)-9-{6-[(^2H3)methyl{3-[(5,5,5-trifluoropentyl)sulphonyl]propyl}amino]hexyl}-6,7-dihydro-5H-benzo[7]annulen-3-ol]
0.008 µM | CN(CCCCCCC1=C(c2cc(F)cc(F)c2)CCCc2cc(O)ccc21)CCC[S+]([O-])CCC(F)(F)C(F)(F)F (stereo not drawn) [Example 2, 8-(3,5-Difluorophenyl)-9-[6-(methyl{3-[(3,3,4,4,4-pentafluorobutyl)sulphinyl]propyl}amino)hexyl]-6,7-dihydro-5H-benzo[7]annulen-3-ol]
0.004 µM | CN(CCCCCCC1=C(c2ccc(F)cc2F)CCCc2cc(O)ccc21)CCCCS(=O)(=O)CCCC(F)(F)F [Example 132, 8-(2,4-Difluorophenyl)-9-[6-(methyl{4-[(4,4,4-trifluorobutyl)sulphonyl]butyl}amino)hexyl]-6,7-dihydro-5H-benzo[7]annulen-3-ol]
0.01 µM | CN(CCCCCCC1=C(c2ccc(F)cc2)CCCc2c1ccc(O)c2F)CCCS(=O)(=O)CCCCC(F)(F)F [Example 87, 4-Fluoro-8-(4-fluorophenyl)-9-[6-(methyl{3-[(5,5,5-trifluoropentyl)sulphonyl]propyl}amino)hexyl]-6,7-dihydro-5H-benzo[7]annulen-3-ol]
0.038 µM | CC(C)(O)CN(CCCCCCC1=C(c2cc(F)cc(F)c2)CCCc2cc(O)ccc21)CCC[S+]([O-])CCC(F)(F)F (stereo not drawn) [Example 10, 8-(3,5-Difluorophenyl)-9-{6-[(2-hydroxy-2-methylpropyl){3-[(3,3,3-trifluoropropyl)sulphinyl]propyl}amino]hexyl}-6,7-dihydro-5H-benzo[7]annulen-3-ol]
0.014 µM | CN(CCCCCCC1=C(c2ccc(F)cc2)CCCc2c1ccc(O)c2F)CCCS(=O)(=O)CCCC(F)(F)F [Example 149, 4-Fluoro-8-(4-fluorophenyl)-9-[6-(methyl{3-[(4,4,4-trifluorobutyl)sulphonyl]propyl}amino)hexyl]-6,7-dihydro-5H-benzo[7]annulen-3-ol]
0.123 µM | CN(CCCCCCC1=C(c2ccc(F)cc2)CCCc2cc(O)c(F)cc21)CCCCCS(=O)(=O)CCC(F)(F)F [Example 107, 2-Fluoro-8-(4-fluorophenyl)-9-[6-(methyl{5-[(3,3,3-trifluoropropyl)sulphonyl]pentyl}amino)hexyl]-6,7-dihydro-5H-benzo[7]annulen-3-ol]
0.018 µM | O=S(=O)(CCCNCCCCCCC1=C(c2ccc(F)cc2)CCCc2cc(O)ccc21)CCCC(F)(F)C(F)(F)F [Example 113, 8-(4-Fluorophenyl)-9-[6-({3-[(4,4,5,5,5-pentafluoropentyl)sulphonyl]propyl}amino)hexyl]-6,7-dihydro-5H-benzo[7]annulen-3-ol]
